The supplement of paper PMC9663587

Columns and labels:
MDAMB157 [1] = assay: area over the GR curve, 72 h; higher = more effect;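 also: Dye Drop or Deep Dye Drop imaging of viable cells in 384-well plates (Hoechst nuclei, LIVE/DEAD dye), nine half-log doses, GR normalized to DMSO controls and time-zero plates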
HCC1428 = assay: area over the GR curve, 72 h; higher = more effect;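 also: Dye Drop or Deep Dye Drop imaging of viable cells in 384-well plates (Hoechst nuclei, LIVE/DEAD dye), nine half-log doses, GR normalized to DMSO controls and time-zero plates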
HCC1500 = assay: area over the GR curve, 72 h; higher = more effect;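 also: Dye Drop or Deep Dye Drop imaging of viable cells in 384-well plates (Hoechst nuclei, LIVE/DEAD dye), nine half-log doses, GR normalized to DMSO controls and time-zero plates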
PDX1258 = assay: GRmax, 72 h; higher = less effect;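 also: breast cell lines in 384-well plates, nine doses across a 10^4 range, Dye Drop imaging of viable cells vs DMSO and time-zero plates, GR 0 means no net growth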
CAL120 = assay: GRmax, 72 h; higher = less effect;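 also: breast cell lines in 384-well plates, nine doses across a 10^4 range, Dye Drop imaging of viable cells vs DMSO and time-zero plates, GR 0 means no net growth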
MDAMB453 = assay: GRmax, 72 h; higher = less effect;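 also: breast cell lines in 384-well plates, nine doses across a 10^4 range, Dye Drop imaging of viable cells vs DMSO and time-zero plates, GR 0 means no net growth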
MDAMB157 [2] = assay: GRmax, 72 h; higher = less effect;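 also: breast cell lines in 384-well plates, nine doses across a 10^4 range, Dye Drop imaging of viable cells vs DMSO and time-zero plates, GR 0 means no net growth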
HCC1954 = assay: GRmax, 72 h; higher = less effect
MCF10A (GM) [3] = assay: area over the GR curve, 72 h; higher = more effect;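 also: Dye Drop or Deep Dye Drop imaging of viable cells in 384-well plates (Hoechst nuclei, LIVE/DEAD dye), nine half-log doses, GR normalized to DMSO controls and time-zero plates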
PDX1206 = assay: area over the GR curve, 72 h; higher = more effect
MCF10A (GM) [4] = assay: GRmax, 72 h; higher = less effect

Row | SMILES | area over the GR curve (MDAMB157 [1]) [GR] | area over the GR curve (HCC1428) [GR] | area over the GR curve (HCC1500) [GR] | GRmax, 72 h (PDX1258) [GR] | GRmax, 72 h (CAL120) [GR] | GRmax, 72 h (MDAMB453) [GR] | GRmax, 72 h (MDAMB157 [2]) [GR] | GRmax, 72 h (HCC1954) [GR] | area over the GR curve (MCF10A (GM) [3]) [GR] | area over the GR curve (PDX1206) [GR] | GRmax, 72 h (MCF10A (GM) [4]) [GR]
1 | CCOc1cc2ncc(C#N)c(Nc3ccc(OCc4ccccn4)c(Cl)c3)c2cc1NC(=O)/C=C/CN(C)C [Neratinib/HKI272] (max 3.162 µM) | 0.191 | 0.101 | 0.165 | 0.203 | -0.261 | -0.322 | 0.117 | -0.0909 | – | – | –
2 | O=C(c1cc(Cc2n[nH]c(=O)c3ccccc23)ccc1F)N1CCN(C(=O)C2CC2)CC1 [Olaparib/AZD2281] (max 10 µM) | 0.115 | 0.323 | 0.0931 | 0.577 | 0.269 | -0.0358 | 0.158 | 0.527 | – | – | –
3 | CC(=O)O[C@H]1C(=O)[C@@]2(C)[C@H]([C@H](OC(=O)c3ccccc3)[C@]3(O)C[C@H](OC(=O)[C@H](O)[C@@H](NC(=O)c4ccccc4)c4ccccc4)C(C)=C1C3(C)C)[C@]1(OC(C)=O)CO[C@@H]1C[C@@H]2O [Paclitaxel] (max 1 µM) | 0.946 | 0.507 | 0.609 | -0.0818 | -0.199 | 0.0356 | -0.67 | -0.396 | – | – | –
4 | CS(=O)(=O)N1CCN(Cc2cc3nc(-c4cccc5[nH]ncc45)nc(N4CCOCC4)c3s2)CC1 [Pictilisib/GDC0941] (max 10 µM) | 0.258 | 0.117 | 0.203 | 0.0518 | 0.194 | -0.374 | 0.187 | -0.227 | – | – | –
5 | O=C1NC(=NCc2cccs2)SC1=Cc1ccc2ncccc2c1 [R0-3306] (max 10 µM) | – | – | – | -0.274 | 0.15 | 0.0452 | – | -0.0775 | 0.0788 | 0.197 | -0.0351
6 | CNCc1ccc(-c2[nH]c3cc(F)cc4c3c2CCNC4=O)cc1 [Rucaparib] (max 10 µM) | – | – | – | 0.564 | 0.613 | 0.18 | – | 0.906 | 0.0455 | 0.114 | 0.882
7 | CC1(N)CCN(c2cnc(-c3cccc(Cl)c3Cl)c(N)n2)CC1 [SHP099] (max 10 µM) | – | – | – | 1.09 | 0.869 | 0.726 | – | 0.569 | 0.0203 | 0.0699 | 0.738
8 | CN1CCN(CCOc2cc(OC3CCOCC3)c3c(Nc4c(Cl)ccc5c4OCO5)ncnc3c2)CC1 [Saracatinib/AZD0530] (max 10 µM) | 0.17 | 0.0609 | 0.433 | 0.184 | 0.526 | 0.393 | 0.355 | 0.0936 | – | – | –
9 | Cc1cc(C(C)Nc2ccccc2)c2nc(N3CCOCC3)cc(=O)n2c1 (stereo not given) [TGX221] (max 10 µM) | -0.005 | 0.0058 | 0.0613 | 0.997 | 1.02 | 0.828 | 0.824 | 0.961 | – | – | –
10 | CN(C)C/C=C/C(=O)Nc1ccc(C(=O)Nc2cccc(Nc3ncc(Cl)c(-c4c[nH]c5ccccc45)n3)c2)cc1 [THZ1] (max 1 µM) | – | – | – | -0.716 | -0.128 | -0.256 | – | -0.507 | 0.374 | 0.506 | -0.267
11 | CN(C)C/C=C/C(=O)Nc1ccc(C(=O)N2CCC[C@@H](Nc3ncc(Cl)c(-c4c[nH]c5ccccc45)n3)C2)cc1 [THZ531] (max 1 µM) | – | – | – | -0.575 | -0.0211 | -0.294 | – | -0.303 | 0.134 | 0.407 | -0.28
12 | CN(C)C/C=C/C(=O)Nc1ccc(C(=O)Nc2cccc(Nc3cc(-c4c[nH]c5ccccc45)ncn3)c2)cc1 [THZ-P1-2] (max 10 µM) | – | – | – | -0.891 | -0.278 | -0.706 | – | -0.649 | 0.0927 | -0.0028 | -0.164
13 | Cc1nc(-c2cn3c(n2)-c2ccc(-c4cnn(C(C)(C)C(N)=O)c4)cc2OCC3)n(C(C)C)n1 [Taselisib/GDC0032] (max 10 µM) | 0.339 | 0.139 | 0.209 | 0.106 | 0.151 | -0.635 | 0.211 | -0.363 | – | – | –
14 | O=C1NC(=O)[C@@H](c2cn3c4c(cccc24)CCC3)[C@@H]1c1c[nH]c2ccccc12 [Tivantinib/ARQ197] (max 10 µM) | 0.388 | 0.345 | 0.491 | -0.209 | -0.256 | -0.0719 | -0.482 | -0.385 | – | – | –
15 | CC[C@@]1(O)C(=O)OCc2c1cc1n(c2=O)Cc2cc3c(CN(C)C)c(O)ccc3nc2-1 [Topotecan] (max 10 µM) | 1.08 | 0.835 | 1.22 | -0.457 | -0.336 | -0.529 | -0.833 | -0.401 | – | – | –
16 | Nc1ccc(-c2ccc3ncc4ccc(=O)n(-c5cccc(C(F)(F)F)c5)c4c3c2)cn1 [Torin2] (max 1 µM) | 0.41 | 0.439 | 0.888 | -0.207 | -0.0115 | -0.814 | -0.216 | -0.328 | – | – | –
17 | CC[C@@H]1C(=O)N(C)c2cnc(Nc3ccc(C(=O)N[C@H]4CC[C@H](N5CCN(CC6CC6)CC5)CC4)cc3OC)nc2N1C(C)C [Volasertib/BI6727] (max 1 µM) | 0.851 | 0.395 | 0.297 | -0.232 | 0.0258 | -0.201 | -0.664 | -0.154 | – | – | –
18 | O=C(CCCCCCC(=O)Nc1ccccc1)NO [Vorinostat] (max 10 µM) | 0.297 | 0.339 | 0.301 | -0.0232 | -0.228 | -0.608 | -0.413 | -0.14 | – | – | –
19 | C=CC(=O)Nc1ccc(C(=O)Nc2[nH]nc3c2CN(C(=O)N[C@H](CN(C)C)c2ccccc2)C3(C)C)cc1 [YKL-5-124] (max 10 µM) | – | – | – | -0.587 | 0.182 | -0.503 | – | -0.14 | 0.982 | 0.57 | -0.141
